Data set [1] has as its system 855-2 cells. The data set can be described thus: colony formation (CFU) of leukemic cells in semi-solid medium (FIG. 4). Format: cell-based, human.
Protocol: (§1) Experiments were performed in which the functions of various cancer cells (855-2 and HL-60 leukemia cells, D32, D37 and CRL 7712 glioblastoma cell lines, 186 medulla tumor cell line, L1210 murine leukemia cell line, MDA-468 human breast tumor cell line) and normal cells (neutrophil leukocytes and bone marrow or peripheral blood stream cells) were assessed in the absence or presence of the compounds.
The subject of data set [2] is HIV-1 (MN strain) virions. The data set can be described thus: zinc loss from HIV-1 virions. Format: biochemical. How it is done: Experiments were performed to determine if NOBA is capable of ejecting zinc from intact virions. HIV-1(MN strain) was produced, purified and concentrated as described in Bess et al., J. Virol. 66:840-847 (1992). The concentrated virus was diluted to 60 times that of culture fluid in TNE buffer (0.01 M Tris-HCl, 0.1M NaCl, 1 mM EDTA, pH 7.2) and incubated with 3000 or 6000 μM NOBA at 37° C. The virus was then pelleted and washed with TNE buffer to remove weakly bound zinc. The quantity of zinc in the resulting viral pellets was determined as described in Bess et al., J. Virol. 66:840-847 (1992).

In data set [3] the test system is HL-60 cells. In words: colony formation (CFU) of leukemic cells in semi-solid medium (FIG. 4). Format: cell-based, human.
Protocol: as §1
Data set [4] relates to HIV-1. In words: inhibition of HIV infection, virus titer in stimulated human lymphoblasts. Format: cell-based. Particulars: 10 μM; 30 min exposure, day 10; virus alone 5.25. Here is the method: VIII. Anti-HIV action of NOBP, NOBA and NOQ on stimulated human lymphoblasts.
Exposure to the two drugs was only for 30 minutes at the commencement of viral infection, and drugs were never re-added. The results given in Table III provide the ID50 of HIV titer 10 days after infection of cell cultures with HIV.

Data set [5] deals with Human Neutrophils. The data set can be described thus: superoxide generation by human neutrophils. As to conditions: 10 μM.
In data set [6] the test system is normal cells (neutrophil leukocytes and bone marrow or peripheral blood cells). The data set can be described thus: viability / functions of normal cells in presence of compounds.
Protocol: as §1
In data set [7] the test system is L1210 murine leukemia. The data set can be described thus: L1210 murine leukemia in vivo. As to conditions: 2 mg/kg i.p. twice a day, 6 consecutive days. More on the design: species or system BDF mice.
Data set [8] relates to 855-2 cells. The data set can be described thus: [3H] thymidine uptake / growth, 855-2 cells (FIG. 2A, E, F; FIG. 3). Format: cell-based, human. How it is done:
FIGS. 2A-2F are a composite of graphs displaying the inhibitory effects of the ADRPT ligands on (FIG. 2A) 855-2 cells (a cell line of human B-cell lineage acute lymphoblastic leukemia), (FIG. 2B) H9 cells (a cell line of human T-cell lineage acute lymphoblastic leukemia), FIG. (2C) HL-60 cells (a cell line of human acute nonlymphoblastic leukemia) and (FIG. 2D) K562 cells (a cell line of human chronic myelogenous leukemia). These cells were cultured while under the influence of the growth factors in 10% fetal bovine serum (FCS), whereas in (FIG. 2E) and (FIG. 2F) the 855-2 cells were cultured in the presence of autocrine growth factor activity (AGF) or low molecular weight-B-cell growth factor (BCGF, a T-cell derived lymphokine), respectively.
Experiments using HL-60 cells (FIG. 2C) provided similar conclusions.
855-2 cells that were grown in media with (1) 10% fetal bovine serum, (2) autocrine growth factor (AGF) and (3) low molecular weight-BCGF (a T cell derived lymphokine) were exposed to increasing concentrations of the ADRPT ligands.

In data set [9] the test system is human leukemia cell lines (855-2, H9, HL-60, K562). In words: [3H] thymidine uptake, human leukemia cell lines together. Format: cell-based. As to conditions: 10 μM; each of the cell lines tested.

With `NC(=O)c1cccc(N=O)c1` [NOBA, 3-nitrosobenzamide], the “ability to form colonies (CFU)” value in data set [1] is given as “inhibit the ability”. Further, in data set [2] (3000 or 6000 μM, 37° C., p24, gp120 RIA, SDS-PAGE), the “loss of viral proteins in the pellet” value is recorded as “No significant loss of viral proteins”. Besides, in [2] (concentrated HIV-1 (60x)), the “loss of infectivity” value is “complete loss of infectivity” and the “losses of viral zinc” value is 50-83%. For the same molecule, the “ability to form colonies (CFU)” value in [3] was “inhibit the ability”. In addition, in data set [4], the “Virus Titer (log ID50)” value is recorded as 1.05 log ID50. In [5], the “reduction in superoxide generation” value was “Only minor reductions”. Besides, the “Generation of Superoxide by Human Neutrophils” value in data set [5] (mean + S.D., n = 11, PMN + PMA) stood at 44.4 ± 10.0 nmol 02^- /hr/10^5 cells. For the same molecule, the “effect on colony formation by normal cells” value in data set [6] (anti-leukemic doses, rhesus bone marrow and human peripheral blood stem cells, FIG. 5) is reported as “minimal effect on normal cells”. The “effect on viability of normal cells” value in data set [6] (tumor cell inhibitory concentrations) is recorded as “not to affect adversely the viability of normal cells”. Also, in data set [7], the “in vivo chemotherapeutic response” value is listed as “highly significant in vivo chemotherapeutic response” and the “toxic effects in mice” value is “no toxic effects”. Besides, in [8] (10 μM, increasing FCS concentrations), the “growth arrest in increasing FCS” value is recorded as “Growth arrest occurs irrespective of the concentration of FCS”. Besides, in data set [8] (10% fetal bovine serum, AGF or BCGF), the “inhibitory effects with different growth factors” value is listed as “potent inhibitory effects”. The “inhibition of 3H-thymidine uptake” value in [9] is listed as “powerfully inhibited”.

The values above are taken from US5482975A, “Adenosine diphosphoribose polymerase binding nitroso aromatic compounds useful as retroviral inactivating agents, anti-retroviral agents and anti-tumor agents” (priority 1993, dated 1996).
